Patent US7979946B2, “Polish and polishing mitts” (Kimberly-Clark Worldwide, Inc., priority 2006, dated 2011)
Entries after “also recorded” stand apart in the source; their conditions may differ.

System: mold
Assay: Inhibition of mold growth in a polish applied to a mitt
Assay type: cell-based
Settings: chemical added to base polish (Pedag Deluxe Cream Polish), samples compared with each other
Source text: In each of the following Examples, a polish was applied to a mitt. The base polish was provided by Pedag USA, Inc. (Seattle) under the trade name Deluxe Cream Polish. […] The second sheet layer was constructed of a high-loft spunbond web of bicomponent polypropylene/polyethylene fibers with a side-by-side orientation laminated to a film of high density polyethylene on the inside surface. […] The first sheet layer and the second sheet layer were ultrasonically bonded leaving an opening for the insertion of two fingers (such as at seams 16 of FIGS. 1-3). Several different chemicals were tested to determine their ability to inhibit mold growth in a polish that has been applied to a mitt. For example, chloroacetamide, polyaminopropyl biguanide available under the name Cosmocil CQ from ICI Americas Inc., organosilicone quaternary ammonium compound available under the name AEM 5700 from Dow Chemical by Aegis Environmental Management (Midland, Mich.), a combination of combination of isothiazolones and N-/O-formals available under the name Parmetol DF35 from Schulke & Mayr, and methylparaben were each added to a base polish sample. The resulting polish samples were then applied to mitts. The ability of the polish to inhibit mold growth for each sample was then compared.

Row | SMILES | ability of the polish to inhibit mold growth
1 | COC(=O)c1ccc(O)cc1 [methylparaben] | inhibited growth of mold better than the other tested chemicals; also recorded: best results of all samples
2 | CCC(=O)O [propanoic acid] | inhibited growth of mold better than the other tested chemicals
